Results from patent US4015974A, “Amido phosphorothiolates” (priority 1972, dated 1977).

Assays:
Type in all cases: in vivo
[1] = tested on: barnyard grass (Echinochloa crus-galli); assay: Water application, herbicidal effect on barnyard grass (Table 2); set-up: key: 0: not damaged; 5: completely killed; conditions: 25 days, score 0-5
Procedure, shortened: (§1)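 Paddy-soil pots flooded to paddy conditions; rice transplanted at 3-leaf stage, barnyard grass sown, broad-leaved weeds germinating spontaneously. Test compounds applied as wettable powder to soil under flooded water. Herbicidal effect and rice phytotoxicity scored 0–5 at 25 days after application.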

radish = assay: Pre-emergence application, herbicidal effect on radish (Table 1); set-up: key: 0: not damaged; 5: completely killed; conditions: 20 days after application, score 0-5
Procedure, shortened: (§2)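 Soil treatment after sowing, pre-emergence; wettable powder formulations diluted with water. Greenhouse, 20 d. Score 0 = no damage, 5 = complete kill.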

rice = assay: Water application, phytotoxicity on rice (Table 2); set-up: key: 0: no effect; 1: very slightly affected; 2: slightly affected; 3: moderately affected; 4: considerably affected; 5: completely killed; conditions: 25 days, score 0-5
Procedure, shortened: as §1

[2] = tested on: common purslane (Portulaca oleracea); assay: Pre-emergence application, herbicidal effect on common purslane (Table 1); set-up: key: 0: not damaged; 5: completely killed; conditions: 20 days after application, score 0-5
Procedure, shortened: as §2

[3] = tested on: common lambsquarter (Chenopodium album); assay: Pre-emergence application, herbicidal effect on common lambsquarter (Table 1); set-up: key: 0: not damaged; 5: completely killed; conditions: 20 days after application, score 0-5
Procedure, shortened: as §2

[4] = tested on: large crabgrass (Digitaria sanguinalis); assay: Pre-emergence application, herbicidal effect on large crabgrass (Table 1); set-up: key: 0: not damaged; 5: completely killed; conditions: 20 days after application, score 0-5
Procedure, shortened: as §2

[5] = tested on: barnyard grass (Echinochloa crus-galli); assay: Pre-emergence application, herbicidal effect on barnyard grass (Table 1); set-up: key: 0: not damaged; 5: completely killed; conditions: 20 days after application, score 0-5
Procedure, shortened: as §2

[6] = tested on: redroot pigweed (Amaranthus retroflexus); assay: Pre-emergence application, herbicidal effect on redroot pigweed (Table 1); set-up: key: 0: not damaged; 5: completely killed; conditions: 20 days after application, score 0-5
Procedure, shortened: as §2

[7] = tested on: broad-leaved weeds, e.g., monochoria, false pimpernel and toothcup; assay: Water application, herbicidal effect on broad-leaved weeds (Table 2); set-up: key: 0: not damaged; 5: completely killed; conditions: 25 days, score 0-5
Procedure, shortened: as §1

Row | Compound | Herbicidal effects, barnyard grass ([1]; 10 g/a) | Herbicidal effects, barnyard grass ([1]; 20 g/a) | Herbicidal effects, barnyard grass ([1]; 40 g/a) | Herbicidal effect, radish (radish; 10 g./a.) | Herbicidal effect, radish (radish; 20 g./a.) | Herbicidal effect, radish (radish; 40 g./a.) | Phytotoxicity on rice (rice; 10 g/a) | Phytotoxicity on rice (rice; 20 g/a) | Phytotoxicity on rice (rice; 40 g/a) | Herbicidal effect, common purslane ([2]; 10 g./a.) | Herbicidal effect, common purslane ([2]; 20 g./a.) | Herbicidal effect, common purslane ([2]; 40 g./a.) | Herbicidal effect, common lambsquarter ([3]; 10 g./a.) | Herbicidal effect, common lambsquarter ([3]; 20 g./a.) | Herbicidal effect, common lambsquarter ([3]; 40 g./a.) | Herbicidal effect, large crabgrass ([4]; 10 g./a.) | Herbicidal effect, large crabgrass ([4]; 20 g./a.) | Herbicidal effect, large crabgrass ([4]; 40 g./a.) | Herbicidal effect, barnyard grass ([5]; 10 g./a.) | Herbicidal effect, barnyard grass ([5]; 20 g./a.) | further results
1 | CCCCSP(=O)(OCCC)SCC(=O)N1CCCCC1CC (stereo not drawn) [Compound 86] | 5 | 5 | 5 | 0 | 0 | 0 | 0 | 0 | 0 | 5 | 5 | 5 | 5 | 5 | 5 | 5 | 5 | 5 | 5 | 5 | Herbicidal effect, barnyard grass ([5]; 40 g./a.): 5; Herbicidal effect, redroot pigweed ([6]; 10 g./a.): 4; Herbicidal effect, redroot pigweed ([6]; 20 g./a.): 5; Herbicidal effect, redroot pigweed ([6]; 40 g./a.): 5; Herbicidal effects, broad-leaved weeds ([7]; 10 g/a): 5; Herbicidal effects, broad-leaved weeds ([7]; 20 g/a): 5; Herbicidal effects, broad-leaved weeds ([7]; 40 g/a): 5
2 | CCCOP(=O)(SCC(=O)N1CCCCC1CC)SC(C)CC (stereo not drawn) [Compound 87] | 5 | 5 | 5 | 0 | 0 | 0 | 0 | 0 | 0 | 3 | 4 | 5 | 3 | 3 | 5 | 5 | 5 | 5 | 5 | 5 | Herbicidal effect, barnyard grass ([5]; 40 g./a.): 5; Herbicidal effect, redroot pigweed ([6]; 10 g./a.): 3; Herbicidal effect, redroot pigweed ([6]; 20 g./a.): 4; Herbicidal effect, redroot pigweed ([6]; 40 g./a.): 5; Herbicidal effects, broad-leaved weeds ([7]; 10 g/a): 5; Herbicidal effects, broad-leaved weeds ([7]; 20 g/a): 5; Herbicidal effects, broad-leaved weeds ([7]; 40 g/a): 5
3 | CCCOP(=O)(SCC(=O)N1CCCCC1CC)SCC(C)C (stereo not drawn) [Compound 88] | 5 | 5 | 5 | 0 | 0 | 0 | 0 | 0 | 0 | 3 | 3 | 4 | 3 | 3 | 4 | 5 | 5 | 5 | 5 | 5 | Herbicidal effect, barnyard grass ([5]; 40 g./a.): 5; Herbicidal effect, redroot pigweed ([6]; 10 g./a.): 3; Herbicidal effect, redroot pigweed ([6]; 20 g./a.): 3; Herbicidal effect, redroot pigweed ([6]; 40 g./a.): 4; Herbicidal effects, broad-leaved weeds ([7]; 10 g/a): 5; Herbicidal effects, broad-leaved weeds ([7]; 20 g/a): 5; Herbicidal effects, broad-leaved weeds ([7]; 40 g/a): 5
4 | CCCCCSP(=O)(OCCC)SCC(=O)N1CCCCC1CC (stereo not drawn) [Compound 89] | 5 | 5 | 5 | 0 | 0 | 0 | 0 | 0 | 0 | 3 | 4 | 5 | 3 | 4 | 5 | 4 | 5 | 5 | 4 | 5 | Herbicidal effect, barnyard grass ([5]; 40 g./a.): 5; Herbicidal effect, redroot pigweed ([6]; 10 g./a.): 3; Herbicidal effect, redroot pigweed ([6]; 20 g./a.): 4; Herbicidal effect, redroot pigweed ([6]; 40 g./a.): 5; Herbicidal effects, broad-leaved weeds ([7]; 10 g/a): 5; Herbicidal effects, broad-leaved weeds ([7]; 20 g/a): 5; Herbicidal effects, broad-leaved weeds ([7]; 40 g/a): 5
5 | CCCOP(=O)(SCCC(C)C)SCC(=O)N1CCCCC1CC (stereo not drawn) [Compound 90] | 5 | 5 | 5 | 0 | 0 | 0 | 0 | 0 | 1 | 3 | 4 | 5 | 3 | 3 | 5 | 5 | 5 | 5 | 5 | 5 | Herbicidal effect, barnyard grass ([5]; 40 g./a.): 5; Herbicidal effect, redroot pigweed ([6]; 10 g./a.): 3; Herbicidal effect, redroot pigweed ([6]; 20 g./a.): 4; Herbicidal effect, redroot pigweed ([6]; 40 g./a.): 5; Herbicidal effects, broad-leaved weeds ([7]; 10 g/a): 5; Herbicidal effects, broad-leaved weeds ([7]; 20 g/a): 5; Herbicidal effects, broad-leaved weeds ([7]; 40 g/a): 5
6 | CCCCOP(=O)(SCC)SCC(=O)N1CCCCC1CC (stereo not drawn) [Compound 92] | 5 | 5 | 5 | 0 | 0 | 0 | 0 | 0 | 2 | 5 | 5 | 5 | 5 | 5 | 5 | 5 | 5 | 5 | 5 | 5 | Herbicidal effect, barnyard grass ([5]; 40 g./a.): 5; Herbicidal effect, redroot pigweed ([6]; 10 g./a.): 5; Herbicidal effect, redroot pigweed ([6]; 20 g./a.): 5; Herbicidal effect, redroot pigweed ([6]; 40 g./a.): 5; Herbicidal effects, broad-leaved weeds ([7]; 10 g/a): 5; Herbicidal effects, broad-leaved weeds ([7]; 20 g/a): 5; Herbicidal effects, broad-leaved weeds ([7]; 40 g/a): 5
